Assay results: ChEMBL document CHEMBL4130389, “An integrative study to identify novel scaffolds for sphingosine kinase 1 inhibitors” (Eur J Med Chem, 2017)

Target: Sphingosine kinase 1 (Homo sapiens, UniProt Q9NYA1)
Assay: Inhibition of human N-terminal MGHHHHHHHHHHSSG-tagged SphK1 (2 to 384 residues) expressed in Escherichia coli Rosetta-2 by fluorescence assay

Sequence of Sphingosine kinase 1 (Q9NYA1 whole entry, the tested form may be a part): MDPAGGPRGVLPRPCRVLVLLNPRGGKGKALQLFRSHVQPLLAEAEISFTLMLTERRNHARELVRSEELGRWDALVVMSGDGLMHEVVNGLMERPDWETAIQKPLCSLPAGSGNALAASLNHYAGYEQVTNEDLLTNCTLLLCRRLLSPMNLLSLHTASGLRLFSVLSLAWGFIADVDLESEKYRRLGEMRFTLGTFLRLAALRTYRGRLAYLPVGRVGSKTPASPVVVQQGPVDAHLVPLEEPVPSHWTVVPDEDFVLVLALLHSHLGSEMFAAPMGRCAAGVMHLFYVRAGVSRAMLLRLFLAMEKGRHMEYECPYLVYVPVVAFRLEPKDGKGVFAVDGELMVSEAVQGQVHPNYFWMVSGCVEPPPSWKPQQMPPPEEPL

IC50 | Structure (SMILES)
60 µM | CCCCOC(=O)Nc1cccc(C(O)CN2CCN(c3ccncc3)CC2)c1 (stereo not drawn)
12 µM | CC1Cc2c(N/N=C/c3ccc(Cl)cc3)ncnc2N(C)c2ccccc21 (stereo not drawn)
55 µM | CCCCOC(=O)Nc1ccc(C(O)CN2CCN(c3ccncc3)CC2)cc1 (stereo not drawn)
